Measured values from ChEMBL document CHEMBL1158838, “Immunosuppressive iridoids from the fruits of Gardenia jasminoides” (J Nat Prod, 2005).
The source made the active and inactive calls. The calls are words filed in the database; no cut-off is given here.

How the values were obtained:
[1] = test system: T-cell; assay: Immunosuppressive activity against human peripheral blood T cells assessed as inhibition of PMA and anti-CD28 monoclonal antibody-costimulated IL2 secretion at 100 ug/ml by ELISA; type: functional, cell-based
[2] = test system: T-cell; assay: Immunosuppressive activity against human peripheral blood T cells assessed as inhibition of PMA and anti-CD28 monoclonal antibody-costimulated IL2 secretion at 50 ug/ml by ELISA; type: functional, cell-based

Row | Compound | Activity [1] | Activity [2]
1 | C[C@]1(O)C[C@H](O)[C@@H]2C(C=O)=CO[C@@H](O[C@@H]3O[C@H](CO)[C@@H](O)[C@H](O)[C@H]3O)[C@@H]21 | Active | Active
2 | COC(=O)C1=CO[C@@H](O[C@@H]2O[C@H](CO)[C@@H](O)[C@H](O)[C@H]2O)[C@@H]2C(CO)=C[C@H](O)[C@H]12 | Active | Active
3 | COC(=O)C1=CO[C@@H](O[C@@H]2O[C@H](CO)[C@@H](O)[C@H](O)[C@H]2O)[C@@H]2C(CO)=CC[C@H]12 | Active | Active
4 | C[C@]1(O)C[C@@H](O)[C@@H]2C(C(=O)O)=CO[C@@H](O[C@@H]3O[C@H](CO)[C@@H](O)[C@H](O)[C@H]3O)[C@@H]21 | Active | Active
5 | COC(=O)C1=CO[C@@H](O[C@@H]2O[C@H](CO)[C@@H](O)[C@H](O)[C@H]2O)[C@@H]2C(CO)=C[C@@H](O)[C@H]12 | Active | 
6 | COC(=O)C1=CO[C@@H](O[C@@H]2O[C@H](CO[C@@H]3O[C@H](CO)[C@@H](O)[C@H](O)[C@H]3O)[C@@H](O)[C@H](O)[C@H]2O)[C@@H]2C(CO)=CC[C@H]12 | Active | 
